From the supplement of paper PMC11061612

Assays:
Assay in all cases: Bliss excess, mean over the matrix (fraction); higher = more synergy
[1] = system: C32 (Melanoma)
Procedure, shortened: (§1)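 Cell lines grown in DMEM/F12 or RPMI with 10% FBS were plated in 1536-well plates and held 24 hours at 37°C, 5% CO2 before 72 hours of exposure to two-drug dose matrices, with DMSO typically at 0.2%. CellTiter-Glo 2.0 luminescence gave viability, which was converted to inhibition. Vehicle wells were set to 0 and blank wells to 1. Combination Emax is the second-highest inhibition in the matrix, and Bliss excess is the observed combination effect minus the expected EA + EB − EA·EB, where EA and EB are the single-agent effects.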

[2] = system: L-363 (Plasma Cell Myeloma)
Procedure, shortened: as §1

[3] = system: SW1463 (Colorectal Carcinoma)
Procedure, shortened: as §1

[4] = system: NTERA-2-cl-D1 (Other Solid Carcinomas)
Procedure, shortened: as §1

[5] = system: HT-3 (Cervical Carcinoma)
Procedure, shortened: as §1

[6] = system: RS4-11 (B-Lymphoblastic Leukemia)
Procedure, shortened: as §1

[7] = system: SUP-HD1 (Hodgkin's Lymphoma)
Procedure, shortened: as §1

[8] = system: JURL-MK1 (Chronic Myelogenous Leukemia)
Procedure, shortened: as §1

[9] = system: GRANTA-519 (B-Cell Non-Hodgkin's Lymphoma)
Procedure, shortened: as §1

[10] = system: NCI-H1648 (Lung Adenocarcinoma)
Procedure, shortened: as §1

[11] = system: C2BBe1 (Colorectal Carcinoma)
Procedure, shortened: as §1

[12] = system: NCI-H2009 (Lung Adenocarcinoma)
Procedure, shortened: as §1

[13] = system: IGROV-1 (Ovarian Carcinoma)
Procedure, shortened: as §1

[14] = system: OVKATE (Ovarian Carcinoma)
Procedure, shortened: as §1

[15] = system: SK-N-DZ (Neuroblastoma)
Procedure, shortened: as §1

[16] = system: BC-1 (B-Cell Non-Hodgkin's Lymphoma)
Procedure, shortened: as §1

[17] = system: JJN-3 (Plasma Cell Myeloma)
Procedure, shortened: as §1

[18] = system: HT-144 (Melanoma)
Procedure, shortened: as §1

[19] = system: ATN-1 (T-Lymphoblastic Leukemia)
Procedure, shortened: as §1

[20] = system: SNU-1 (Gastric Carcinoma)
Procedure, shortened: as §1

| Structure (SMILES) | Bliss excess [1] | Bliss excess [2] | Bliss excess [3] | Bliss excess [4] | Bliss excess [5] | Bliss excess [6] | Bliss excess [7] | Bliss excess [8] | Bliss excess [9] | Bliss excess [10] | Bliss excess [11] | Bliss excess [12] | Bliss excess [13] | Bliss excess [14] | Bliss excess [15] | Bliss excess [16] | Bliss excess [17] | Bliss excess [18] | Bliss excess [19] | Bliss excess [20] |
| --- | --- | --- | --- | --- | --- | --- | --- | --- | --- | --- | --- | --- | --- | --- | --- | --- | --- | --- | --- | --- |
| C=CCn1c(=O)c2cnc(Nc3ccc(N4CCN(C)CC4)cc3)nc2n1-c1cccc(C(C)(C)O)n1 [AZD1775] + C[C@@H]1COCCN1C2=NC(=NC(=C2)C3(CC3)[S@](=N)(=O)C)C4=C5C=CNC5=NC=C4 [AZD6738] (first compound max 1 µM, partner max 10 µM) | 0.0073 | 0.0474 | -0.0807 | 0.0123 | 0.0386 | 0.0188 | -0.0282 | 0.0515 | 0.0068 | 0.0111 | 0.0278 | 0.0987 | -0.0348 | -0.0703 | 0.0094 | 0.0338 | 0.0559 | -0.0482 | -0.0076 |  |
| CCc1c2c(nc3ccc(O)cc13)-c1cc3c(c(=O)n1C2)COC(=O)[C@]3(O)CC [SN-38] + O=C(c1cc(Cc2n[nH]c(=O)c3ccccc23)ccc1F)N1CCN(C(=O)C2CC2)CC1 [Olaparib] (first compound max 0.3 µM, 7x7, partner max 10 µM) | 0.117 | 0.0309 | 0.0557 | 0.0387 | 0.0669 |  | -0.0168 | 0.0401 |  | 0.0133 |  | 0.14 |  | -0.0113 |  | 0.0369 | 0.0187 |  | 0.0907 | 0.0064 |
| C[C@@H]1COCCN1c1cc(C2([S@](C)(=N)=O)CC2)nc(-c2ccnc3[nH]ccc23)n1 [AZD6738] + Nc1ccn([C@@H]2O[C@H](CO)[C@@H](O)C2(F)F)c(=O)n1 [Gemcitabine] (first compound max 10 µM, 7x7, partner max 0.3 µM) | -0.0247 | 0.0716 | -0.0128 | -0.0019 |  |  |  |  |  | 0.0542 |  | 0.0954 |  | -0.0172 |  | 0.0099 |  |  |  |  |
| Cc1c2c(nn1C)CSCc1cc(n(C)n1)CSc1cc(c3ccccc3c1)OCCCc1c(C(=O)O)n(C)c3c-2c(Cl)ccc13 [AZD5991] + Cc1cc2ncnn2cc1Nc1ncc2c(n1)n(C1CCOCC1)c(=O)n2C [AZD7648] (first compound max 1 µM, 7x7, partner max 10 µM) | -0.0308 | 0.0345 | -0.015 | -0.0697 | -0.0173 |  | -0.104 | -0.0227 | -0.0268 | -0.0218 | -0.0449 | -0.0188 | -0.103 | -0.0347 | -0.0564 | 0.0172 | 0.0324 | -0.0131 | -0.0513 | -0.0307 |
| C[C@@H](Nc1cc(F)cc(F)c1)c1cc(C(=O)N(C)C)cc2c(=O)cc(N3CCOCC3)oc12 [AZD8186] + C1CN(CCC1(C(=O)N[C@@H](CCO)C2=CC=C(C=C2)Cl)N)C3=NC=NC4=C3C=CN4 [AZD5363] (first compound max 10 µM, 7x7, partner max 10 µM) | -0.0235 | -0.0138 | -0.016 | -0.0573 |  |  |  |  |  | -0.0377 |  | -0.034 |  | -0.0281 |  | 0.0374 |  |  |  |  |
| C[C@@H]1COCCN1c1cc(C2([S@](C)(=N)=O)CC2)nc(-c2ccnc3[nH]ccc23)n1 [AZD6738] + C1CC(C1)(C(=O)[O-])C(=O)[O-].N.N.[Pt+2] [Carboplatin] (first compound max 10 µM, 7x7, partner max 10 µM) | -0.0133 | -0.0089 | -0.0446 | -0.0651 |  |  |  |  |  | -0.0579 |  | -0.0556 |  | -0.0642 |  | -0.0173 |  |  |  |  |
| Cc1c2c(nn1C)CSCc1cc(n(C)n1)CSc1cc(c3ccccc3c1)OCCCc1c(C(=O)O)n(C)c3c-2c(Cl)ccc13 [AZD5991] + CC(=O)O[C@H]1C(=O)[C@@]2(C)[C@H]([C@H](OC(=O)c3ccccc3)[C@]3(O)C[C@H](OC(=O)[C@H](O)[C@@H](NC(=O)c4ccccc4)c4ccccc4)C(C)=C1C3(C)C)[C@]1(OC(C)=O)CO[C@@H]1C[C@@H]2O [Paclitaxel] (first compound max 1 µM, 7x7, partner max 3 µM) | 0.0017 | -0.0043 | 0.0763 | 0.111 |  |  |  |  |  | -0.0144 |  | 0.0027 |  | -0.0107 |  | -0.0329 |  |  |  |  |
| Cc1c2c(nn1C)CSCc1cc(n(C)n1)CSc1cc(c3ccccc3c1)OCCCc1c(C(=O)O)n(C)c3c-2c(Cl)ccc13 [AZD5991] + CS(=O)(=O)CCNCc1ccc(-c2ccc3ncnc(Nc4ccc(OCc5cccc(F)c5)c(Cl)c4)c3c2)o1 [Lapatinib] (first compound max 1 µM, 7x7, partner max 10 µM) | -0.0014 | 0.0132 | 0.0331 | -0.0334 |  |  |  |  |  | -0.023 |  | -0.0136 |  | -0.0552 |  | 0.0211 |  |  |  |  |
